Results as given in US20240010961A1 (priority 2020, published 2024).
Where two headings read alike, the source gives them in different places.

What was measured:
EW-7 (Ewing's sarcoma) = settings: EW-7 in mice; cited from earlier work
SAOS-LM7 (osteosarcoma) = settings: cited from earlier work
hepatocytes = experiment: MOI validation: hepatocyte drug metabolism quantified in culture medium by liquid chromatography mass spectrometry; assay type: in vitro ADME; settings: hepatocytes in well insert, medium sampled 0.5-72 h
Protocol: The MOI can be validated for all drugs of interest prior to applying it to sarcoma organoids. In one embodiment, the validation process includes printing 1,000-20,000 hepatocytes in the well insert and incubating in medium for 72 hours. In some embodiments, between about 5,000 and about 10,000 hepatocytes are provided in the well insert. At the 0.5, 1, 2, 4, 8, 12, 24, 48 and 72 h time-points, culture medium is collected from the well. Liquid chromatography mass spectrometry can be used to quantify the parent compound, its metabolites, and their concentrations. The goal is to identify conditions that recreate in vivo drug metabolism. […] To optimize these parameters, the size, shape, and cell density of the well insert can be changed if necessary. Hepatocyte viability and proliferation can be assessed for each time-point by Calcein AM and propidium iodide staining as well as an ATP assay. Optimal hepatocyte conditions and incubation periods for each drug can then be used in subsequent experiments.

From the text for tumor cells: Using the MOI device, tumor cells were co-cultured without, FIG. 12A, and with, FIG. 12B, liver organoid suspended on the MOI device.

In the case of `O=P1(NCCCl)OCCCN1CCCl` (centres unmarked) [ifosfamide], the “sensitivity of cell line in mice” value (EW-7 (Ewing's sarcoma)) is given as “sensitive”, the “sensitivity of cell line in mice” value (SAOS-LM7 (osteosarcoma)) is given as “sensitive” and the “fraction converted into chloro-acetaldehyde” value (hepatocytes) is given as 25-50%.
In the case of `O=P1(N(CCCl)CCCl)NCCCO1` (centres unmarked) [cyclophosphamide], the tumor cell viability (tumor cells; control, without liver organoid on the MOI device (FIG. 12A), logarithmically increasing concentration) was “not significantly diminished” and the tumor cell viability (tumor cells; with MOI-device-supported liver organoid (FIG. 12B), higher CP concentrations) was “decreased”.
